# Measured values from ChEMBL document CHEMBL4507310, “Data for DCP probe A-1211212” (2021).
# Assays:
# [1] = test system: AMO1; assay: CellTiter-Glo Luminescent Cell Viability Assay ( MCL-1 dependent cell line AMO-1); type: functional, cell-based; details: Homo sapiens
# [2] = molecular target: 5-hydroxytryptamine receptor 7 (Homo sapiens) (UniProt P34969); details: Compound concentration 10.0 uM
# [3] = molecular target: Alpha-1D adrenergic receptor (Homo sapiens) (UniProt P25100); details: Compound concentration 10.0 uM
# [4] = molecular target: T1, 5-hydroxytryptamine receptor 1A (Homo sapiens) (UniProt P08908); details: Compound concentration 10.0 uM
# T1 sequence (whole entry): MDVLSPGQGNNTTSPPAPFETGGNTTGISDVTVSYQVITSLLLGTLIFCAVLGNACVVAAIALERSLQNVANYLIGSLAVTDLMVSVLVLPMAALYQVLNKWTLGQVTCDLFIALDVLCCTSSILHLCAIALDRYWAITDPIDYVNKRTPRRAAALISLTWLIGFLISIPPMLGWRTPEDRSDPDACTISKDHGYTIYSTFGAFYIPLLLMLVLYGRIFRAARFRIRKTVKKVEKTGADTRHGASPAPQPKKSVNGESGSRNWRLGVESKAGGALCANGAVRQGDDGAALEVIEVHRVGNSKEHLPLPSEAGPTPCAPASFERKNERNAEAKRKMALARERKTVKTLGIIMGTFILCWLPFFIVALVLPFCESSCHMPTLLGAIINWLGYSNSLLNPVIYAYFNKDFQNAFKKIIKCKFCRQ
# 5-hydroxytryptamine receptor 7 (Homo sapiens), sequence (P34969 whole entry): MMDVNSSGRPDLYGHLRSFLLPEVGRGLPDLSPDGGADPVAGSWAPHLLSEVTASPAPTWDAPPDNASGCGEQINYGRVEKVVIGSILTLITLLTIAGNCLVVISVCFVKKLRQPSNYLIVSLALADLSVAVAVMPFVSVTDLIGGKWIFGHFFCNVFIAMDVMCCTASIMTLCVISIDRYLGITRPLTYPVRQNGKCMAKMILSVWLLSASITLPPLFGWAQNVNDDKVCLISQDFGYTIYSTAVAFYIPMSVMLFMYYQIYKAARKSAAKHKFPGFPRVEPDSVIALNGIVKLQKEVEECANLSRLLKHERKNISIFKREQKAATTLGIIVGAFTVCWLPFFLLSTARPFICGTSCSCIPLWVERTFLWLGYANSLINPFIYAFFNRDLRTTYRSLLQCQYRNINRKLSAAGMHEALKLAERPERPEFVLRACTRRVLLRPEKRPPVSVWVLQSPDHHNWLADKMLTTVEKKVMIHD
# Alpha-1D adrenergic receptor (Homo sapiens), sequence (P25100 whole entry): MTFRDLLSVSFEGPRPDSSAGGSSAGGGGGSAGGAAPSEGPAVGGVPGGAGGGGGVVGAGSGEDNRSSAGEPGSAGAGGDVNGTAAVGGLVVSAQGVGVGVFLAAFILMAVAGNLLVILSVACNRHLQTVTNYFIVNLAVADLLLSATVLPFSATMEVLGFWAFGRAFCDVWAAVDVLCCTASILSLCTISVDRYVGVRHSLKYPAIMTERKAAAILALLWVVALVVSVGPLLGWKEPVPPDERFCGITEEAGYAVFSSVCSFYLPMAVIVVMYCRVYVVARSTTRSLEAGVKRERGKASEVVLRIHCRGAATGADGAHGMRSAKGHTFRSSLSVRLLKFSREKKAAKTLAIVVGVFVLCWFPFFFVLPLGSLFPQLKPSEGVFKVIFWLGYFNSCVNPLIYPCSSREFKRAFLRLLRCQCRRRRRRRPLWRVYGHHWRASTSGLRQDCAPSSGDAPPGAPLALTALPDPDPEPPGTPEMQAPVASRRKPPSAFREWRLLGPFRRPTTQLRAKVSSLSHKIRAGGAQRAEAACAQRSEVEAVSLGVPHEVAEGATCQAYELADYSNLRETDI
compound,measurement,setting,value
CO[C@H]1CC[C@H](CNc2ccc(S(=O)(=O)NC(=O)c3ccc(N4CCN(CC5=C(c6ccc(Cl)cc6)CC(C)(C)CC5)CC4)cc3Oc3cnc4[nH]ccc4c3)cc2[N+](=O)[O-])CC1 [A-1211212],EC50,[1],> 1000 nM (not active)
same,inhibition,[2],-7.24%
same,inhibition,[3],-9.01%
same,inhibition,[4],-7.27%
